IC50 data for 16 compounds are collected here from ChEMBL document CHEMBL1129917, “Structure-based design of novel, dipeptide ligands targeting the pp60Src SH2 domain” (Bioorg Med Chem Lett, 1997).

The test has as its target Proto-oncogene tyrosine-protein kinase Src (Homo sapiens, UniProt P12931). As to the kind of experiment: Inhibition of [125I]-labeled phosphopeptide binding to a Src protein tyrosine kinase SH2 domain.

Sequence of Proto-oncogene tyrosine-protein kinase Src (P12931 2-536 limits assumed): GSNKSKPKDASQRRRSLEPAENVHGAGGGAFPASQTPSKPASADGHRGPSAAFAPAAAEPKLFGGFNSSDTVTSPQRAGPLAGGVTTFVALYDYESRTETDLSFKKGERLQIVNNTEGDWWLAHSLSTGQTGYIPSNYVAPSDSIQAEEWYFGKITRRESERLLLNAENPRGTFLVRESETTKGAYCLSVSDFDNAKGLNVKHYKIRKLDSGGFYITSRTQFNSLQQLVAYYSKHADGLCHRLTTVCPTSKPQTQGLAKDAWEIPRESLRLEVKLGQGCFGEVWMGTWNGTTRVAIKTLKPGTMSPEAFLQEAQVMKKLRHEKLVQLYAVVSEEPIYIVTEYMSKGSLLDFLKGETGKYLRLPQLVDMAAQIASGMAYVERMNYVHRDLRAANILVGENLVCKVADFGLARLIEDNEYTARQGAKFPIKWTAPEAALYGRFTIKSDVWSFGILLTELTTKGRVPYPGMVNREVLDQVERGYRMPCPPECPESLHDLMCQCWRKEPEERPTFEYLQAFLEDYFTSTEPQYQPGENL

Broadly, the IC50 is the concentration that inhibits the measured activity by half. A low value points to higher potency. `CC(=O)N[C@@H](Cc1ccc(OP(=O)(O)O)cc1)C(=O)N[C@@H](C)C(=O)NCCCc1ccccc1` had an IC50 of 15 µM. In the case of `CCc1ccccc1CCNC(=O)[C@H](CCC(=O)O)NC(=O)[C@H](Cc1ccc(OP(=O)(O)O)cc1)NC(C)=O` it was 4.6 µM; in that of `CC(=O)N[C@@H](Cc1ccc(OP(=O)(O)O)cc1)C(=O)N[C@H](C(=O)NCCCc1ccccc1)C(C)C`, around 30 µM. Then `CC(=O)N[C@@H](Cc1ccc(OP(=O)(O)O)cc1)C(=O)N[C@@H](Cc1ccc(OP(=O)(O)O)cc1)C(=O)NCCCc1ccccc1`, with 3.9 µM; and `CC(=O)N[C@@H](Cc1ccc(OP(=O)(O)O)cc1)C(=O)NCC(=O)NCCCc1ccccc1`, with around 46 µM. Take `CC(=O)N[C@@H](Cc1ccc(OP(=O)(O)O)cc1)C(=O)N[C@@H](CCC(=O)O)C(=O)N[C@@H](CCC(N)=O)Cc1cccc2ccccc12`: the IC50 was 2.3 µM. Then `CC(=O)N[C@@H](Cc1ccc(OP(=O)(O)O)cc1)C(=O)N[C@@H](C)C(=O)N(CCCC(=O)O)CCCc1ccccc1`, with 6.4 µM. Consider `CCC[C@H](NC(=O)[C@H](Cc1ccc(OP(=O)(O)O)cc1)NC(C)=O)C(=O)NCCCc1ccccc1`, for which the IC50 worked out at 12 µM. Then `CC(=O)N[C@@H](Cc1ccc(OP(=O)(O)O)cc1)C(=O)NCC(=O)N(CCCC(=O)O)CCCc1ccccc1`, with 14 µM.

Consider `CC(=O)N[C@@H](Cc1ccc(OP(=O)(O)O)cc1)C(=O)N[C@@H](CCC(=O)O)C(=O)NCCC1=CC=CC2CCCCC12` (stereo partly specified), for which the IC50 was 3.2 µM. `CC(=O)N[C@@H](Cc1ccc(OP(=O)(O)O)cc1)C(=O)N[C@@H](CCC(=O)O)C(=O)NCCc1ccccc1` returned an IC50 of 9.1 µM. `CC(=O)N[C@@H](Cc1ccc(OP(=O)(O)O)cc1)C(=O)N[C@@H](CCC(=O)O)C(=O)NCCc1cccc2ccccc12`: the IC50 came to 4.8 µM. Turning to `CC(=O)N[C@@H](Cc1ccc(OP(=O)(O)O)cc1)C(=O)N[C@@H](CCC(=O)O)C(=O)N(CCCC(=O)O)CCCc1ccccc1`, the IC50 was found to be 2 µM. Then `CCCC(NC(=O)[C@H](Cc1ccc(OP(=O)(O)O)cc1)NC(C)=O)C(=O)N(CCCC(=O)O)CCCc1ccccc1` (stereo partly specified), with 4.3 µM; and `CC(=O)N[C@@H](Cc1ccc(OP(=O)(O)O)cc1)C(=O)N[C@@H](CCC(=O)O)C(=O)N(C)CCCc1ccccc1`, with 3.5 µM; and `CC(=O)N[C@@H](Cc1ccc(OP(=O)(O)O)cc1)C(=O)N[C@@H](Cc1ccc(OP(=O)(O)O)cc1)C(=O)N[C@@H](Cc1ccc(OP(=O)(O)O)cc1)C(N)=O`, with 0.24 µM.
